Test results published in the OPERA property sets (Mansouri et al. 2018).

conditions: not given

SMILES	melting point [°C]	boiling point [°C]	log10 vapour pressure (mmHg)	ready biodegradability	log10 biodegradation half-life (days)	log10 Henry constant (atm·m³/mol)	log10 Koc (L/kg)	log10 Koa
Cc1nnc2n1-c1sc(Br)cc1C(c1ccccc1Cl)=NC2	213	–	–	–	–	–	–	–
CC(C)CNCCO	–	199	–	–	–	–	–	–
C#CC(O)(C=CCl)CC (stereo unspecified)	–	174	-1	–	–	–	–	–
N#Cc1cccc2ccccc12	37.5	299	–	–	–	–	–	–
O=c1n(Cl)c(=O)n(Cl)c(=O)n1Cl	–	–	–	not readily biodegradable	–	–	–	–
CC(C)NCC(O)c1cc(O)cc(O)c1 (stereo unspecified)	100	–	–	–	–	–	–	–
Cc1ccc(N(CCO)CCO)cc1	–	339	–	–	–	–	–	–
Cc1ccc2c(Cl)cc(Cl)c(O)c2n1	114	–	–	–	–	–	–	–
CC1CCCC1	-142	71.8	2.14	–	0.602	–	–	–
C[C@H](N)Cc1ccccc1	–	203	–	–	–	–	–	–
CN=C(O)Oc1cccc(C)c1	76.5	–	-2.97	not readily biodegradable	–	–	–	–
O=C1/C(=C/c2ccc(O)c(O)c2)Oc2cc(O)ccc21	303	–	–	–	–	–	–	–
COc1cc(CNC(=O)CCCC/C=C/C(C)C)ccc1O	65	–	–	–	–	–	–	–
CCC(C)C(C)C(C)CC (stereo unspecified)	–	162	–	–	–	–	–	–
CCCCOCOCCCC	-58.1	179	–	–	–	–	–	–
C=C(C)c1ccc(C(C)(C)N=C=O)cc1	–	–	-2.33	–	–	–	–	–
Fc1cc2c(cc1F)Oc1cc(Br)c(Br)cc1O2	210	–	-7.74	–	–	–	–	–
CCc1ccc(CC)cc1	-42.8	184	0.0253	not readily biodegradable	–	–	–	–
c1ccc(N2CCCCC2)cc1	4.7	258	–	–	–	–	–	–
CNc1ccc(O)c2c1C(=O)c1c(O)ccc(NC)c1C2=O	217	–	–	–	–	–	–	–
NCCc1ccc(O)cc1	164	–	–	–	–	–	–	–
C=CCc1cc2c(c(OC)c1OC)OCO2	29.5	285	–	–	–	–	–	–
OCc1ccccc1I	92	–	–	–	–	–	–	–
CCC=CBr	–	99	1.89	–	–	–	–	–
CC=CCc1ccccc1	–	176	–	–	–	–	–	–

SMILES	melting point [°C]	boiling point [°C]	log10 vapour pressure (mmHg)	ready biodegradability	log10 biodegradation half-life (days)	log10 Henry constant (atm·m³/mol)	log10 Koc (L/kg)	log10 Koa
Fc1cc(F)c(F)c(F)c1	-48	84.4	1.86	–	–	–	–	–
OCc1ccc(O)cc1	124	252	–	–	–	–	–	–
O=C(c1ccccc1)c1cccc([N+](=O)[O-])c1	95	–	–	–	–	–	–	–
Clc1cc2c(cc1Cl)Oc1c(Cl)c(Cl)c(Cl)c(Cl)c1O2	273	–	-10.4	–	–	–	–	–
O=C(O)c1ccccc1-c1ccccc1C(=O)O	234	–	–	readily biodegradable	–	–	–	–
C=CC(C)(C)CC	-134	77.5	2.02	–	–	–	–	–
CCN(CC)CN(CC)CC	–	166	–	–	–	–	–	–
CCCCCCCCCCCC(=O)OC	5.2	267	-2.39	readily biodegradable	–	–	–	–
Cc1cc(C=O)ccc1O	119	–	–	–	–	–	–	–
Cc1coc2ccccc12	–	197	–	–	–	–	–	–
C=CCO	-129	97	1.42	readily biodegradable	–	-5.3	–	–
CC(=O)CC(=O)c1cccnc1	85	–	–	–	–	–	–	–
CCCOC(=O)c1ccccc1C(=O)OCCC	–	318	-3.88	–	–	–	–	–
C=C(CC)C(=O)c1ccc(OCC(=O)O)c(Cl)c1Cl	122	–	–	–	–	–	–	–
O=C(CCc1ccc(O)cc1)c1c(O)cc(O)cc1O[C@@H]1O[C@H](CO)[C@@H](O)[C@H](O)[C@H]1O	110	–	–	–	–	–	–	–
C=CCC(C(=O)O)C(=O)O	105	–	–	–	–	–	–	–
O=C(O)C(=O)c1ccccc1	66	–	–	–	–	–	–	–
Brc1c(Br)c(Br)c(Br)c(Br)c1Br	326	–	–	not readily biodegradable	–	–	–	–
CCCCCCCCCOC(=O)c1ccc(N)cc1	69	–	–	–	–	–	–	–
CCNc1nc(NCC)nc(OC)n1	–	–	-5.62	–	–	–	2.34	–
CC(CO)(CO)[N+](=O)[O-]	150	–	–	–	–	–	–	–
N#CCCCCCN	-31.4	236	-0.745	–	–	–	–	–
O=C(O)C(Cc1ccccc1)Cc1ccccc1	90	–	–	–	–	–	–	–
O=[N+]([O-])c1ccccc1Br	43	258	–	–	–	–	–	–
CNCCNC	–	120	–	–	–	–	–	–

SMILES	melting point [°C]	boiling point [°C]	log10 vapour pressure (mmHg)	ready biodegradability	log10 biodegradation half-life (days)	log10 Henry constant (atm·m³/mol)	log10 Koc (L/kg)	log10 Koa
[C-]#[N+]c1ccccc1	–	–	0.381	–	–	–	–	–
CC1=CC(=O)[C@H]2C[C@@H]1C2(C)C	–	228	–	–	–	–	–	–
c1ccc(-c2ccccn2)nc1	72	274	–	–	–	–	1.6	–
CCOC(=O)c1cncn1C(C)c1ccccc1 (stereo unspecified)	67	–	–	–	–	–	–	–
O=C(O)C(F)(F)C(F)(F)C(F)(F)C(F)(F)C(F)(F)C(F)F	34	192	–	–	–	–	–	–
CC(C)=CCC/C(C)=C/C=C/C(C)=C/C=C/C(C)=C/C=C/C=C(C)/C=C/C=C(C)/C=C/C=C(\C)CCCC(C)(C)O	171	–	–	–	–	–	–	–
CC(C)CN(CCO)CC(C)C	–	214	–	–	–	–	–	–
CC1=CCC(C(=O)O)C1(C)C (stereo unspecified)	40.5	242	–	–	–	–	–	–
O=Cc1cc2c(cc1[N+](=O)[O-])OCO2	93.5	–	–	–	–	–	–	–
CC(=O)Nc1ccc(C#N)cc1	207	–	–	–	–	–	–	–
CCO[Si](CC)(OCC)OCC	–	158	–	–	–	–	–	–
C[C@]12CC[C@@H](O)C[C@@H]1CC[C@@H]1[C@@H]2CC[C@]2(C)C=CC[C@@H]12	143	–	–	–	–	–	–	–
C#CCCCCCCCCCCCCC	10	268	–	–	–	–	–	–
CC(=O)Nc1ccc(-c2ccc(N)cc2)cc1	–	–	–	not readily biodegradable	–	–	–	–
O=C(OC[C@H]1O[C@](O)(COC(=O)c2cccnc2)[C@@H](OC(=O)c2cccnc2)[C@@H]1OC(=O)c1cccnc1)c1cccnc1	141	–	–	–	–	–	–	–
C[C@H](O)C(F)(F)F	–	75.5	1.78	–	–	-4.66	–	–
CCCCCCCCOC(=O)CCCCCCCCC(=O)OCCCCCCCC	–	–	–	readily biodegradable	–	–	–	–
CCOC(=O)C(C(=O)OCC)C(C(=O)OCC)C(=O)OCC	77	–	–	–	–	–	–	–
C1=CCCC=CCC1	-56.4	151	0.695	–	–	–	–	–
C=CCc1cc(OC)c2c(c1)OCO2	–	276	–	–	–	–	–	–
Cc1cc(C)cc(C(=O)O)c1	171	–	–	–	–	–	–	–
N#Cc1ccncc1C#N	80	–	–	–	–	–	–	–
CCCCCCCOC(=O)CC	-50.9	210	–	–	–	–	–	–
CCOC(=O)C(Br)CBr (stereo unspecified)	–	214	–	–	–	–	–	–
CCCCNC(=O)NS(=O)(=O)c1ccccc1	131	–	–	–	–	–	–	–

SMILES	melting point [°C]	boiling point [°C]	log10 vapour pressure (mmHg)	ready biodegradability	log10 biodegradation half-life (days)	log10 Henry constant (atm·m³/mol)	log10 Koc (L/kg)	log10 Koa
Cn1c(=O)c2[nH]cnc2n(C)c1=O	273	–	–	–	–	–	–	–
CCCCCCCCCCCCOC(=O)c1cc(O)c(O)c(O)c1	96.5	–	–	–	–	–	–	–
CCCCCCCCCCCN	17	242	–	–	–	–	–	–
O=C(O)CCN1C(=O)C=CC1=O	104	–	–	–	–	–	–	–
Sc1ccc(Br)cc1	73	230	–	–	–	–	–	–
CCC(CO)O[N+](=O)[O-] (stereo unspecified)	–	–	–	–	–	-6.78	–	–
CCC(CC)CCC(C)C	–	160	–	–	–	–	–	–
BrCCBr	9.9	132	1.05	not readily biodegradable	–	-3.19	1.71	–
COC(OC)(OC)OC	-5	114	–	–	–	–	–	–
NCC1CCC(C(=O)O)CC1 (stereo unspecified)	–	–	–	not readily biodegradable	–	–	–	–
COc1ccc2c(c1)C(=O)c1ccccc1C2=O	–	–	-10.2	–	–	–	–	–
CCOC(=O)CCCCCCCCC(=O)OCC	5	305	-3.29	–	–	–	–	–
CCOc1ccccc1C(N)=O	133	–	–	–	–	–	–	–
COCCOCCOCCOC	-45	216	-1.39	–	–	–	–	–
CC(C)(C)c1cc(-n2nc3ccccc3n2)c(O)c(C(C)(C)C)c1	–	–	–	not readily biodegradable	–	–	–	–
ClCC(Cl)(Cl)C(Cl)(Cl)Cl	26	216	–	–	–	–	–	–
CC1C=CCC2C(=O)OC(=O)C12 (stereo unspecified)	–	–	–	not readily biodegradable	–	–	–	–
O=C1c2ccccc2-c2cccc3cccc1c23	170	–	–	not readily biodegradable	–	–	–	–
O=C(O)c1ccc([N+](=O)[O-])c([N+](=O)[O-])c1	166	–	–	–	–	–	1.53	–
Clc1cnccn1	–	154	–	–	–	–	–	–
C=CCc1ccc(O)cc1	15.8	238	–	–	–	–	–	–
c1ccc(Nc2ccc(Nc3ccccc3)cc2)cc1	–	–	-8.2	not readily biodegradable	–	–	–	–
COc1ccccc1Oc1ccccc1OC	79.5	330	–	–	–	–	–	–
ClCCl	-95.1	40	2.64	not readily biodegradable	–	-2.49	1.44	2.27
Nc1ccc(/N=N/c2ccccc2)cc1	127	366	-5.85	not readily biodegradable	–	–	2.79	–

SMILES	melting point [°C]	boiling point [°C]	log10 vapour pressure (mmHg)	ready biodegradability	log10 biodegradation half-life (days)	log10 Henry constant (atm·m³/mol)	log10 Koc (L/kg)	log10 Koa
C=CC[Si](C)(C)Cl	–	111	–	–	–	–	–	–
Cc1ccc(Br)cc1Br	-9.7	–	–	–	–	–	–	–
CC(=O)O[C@]1(C(C)=O)CC[C@H]2[C@@H]3C[C@H](C)C4=CC(=O)C=C[C@]4(C)[C@@]3(F)[C@@H](O)C[C@@]21C	298	–	–	–	–	–	–	–
CSCSC	–	148	–	–	–	–	–	–
CCOC(=O)C(Br)(Br)Br	–	225	–	–	–	–	–	–
C=CCOCCO	–	158	–	–	–	–	–	–
CN1C(=O)CC[C@H]1c1cccnc1	41	–	–	–	–	–	–	–
CCCCCCC(=O)CCCCC	10	–	–	–	–	–	–	–
CCOC(=O)N1CCN(C(=O)OCC)CC1	47	315	–	–	–	–	–	–
C=C(C)C(N)=O	110	–	-1.07	–	–	–	–	–
CC[Si](CC)(CC)O[Si](CC)(CC)CC	–	233	–	–	–	–	–	–
CCCCCCCCCCCCCCCCC#N	34	349	–	–	–	–	–	–
CCCSC(=O)N(CCC)CCC	–	–	-1.98	–	–	–	2.33	–
O=c1cccc[nH]1	108	280	–	readily biodegradable	–	–	–	–
CCCCNC(=O)NS(=O)(=O)c1ccc(C)cc1	128	–	–	–	–	–	–	–
O=C(OCc1ccccc1)c1sc(Cl)nc1C(F)(F)F	52	–	-6.53	–	–	–	–	–
O=C(CC(c1ccccc1)c1ccccc1)c1ccccc1	96	–	–	–	–	–	–	–
CC(=O)CCC(=O)OC(C)C	–	209	–	–	–	–	–	–
CCN(CC)C(=S)[S-].[Na+]	98	–	–	–	–	–	–	–
Cc1c(NC(C)C)c(=O)n(-c2ccccc2)n1C	80	–	–	–	–	–	–	–
C/C=C/C(C)CC (stereo unspecified)	-126	87.6	–	–	–	–	–	–
C[Si](C)(C)O[Si](C)(O[Si](C)(C)C)O[Si](C)(C)C	–	–	-1.4	–	–	–	–	–
CCCCCC#CCO	-18	–	–	–	–	–	–	–
COC(=O)c1ccoc1	–	160	–	–	–	–	–	–
O=S1(=O)OCCO1	99	–	–	–	–	–	–	–

same assay, conditions: fish

SMILES	log10 BCF	log10 biotransformation half-life (days)
CCc1ccc(CC)cc1	2.68	-0.01
Clc1cc2c(cc1Cl)Oc1c(Cl)c(Cl)c(Cl)c(Cl)c1O2	4	1.27
Brc1cc(Br)c(Oc2c(Br)c(Br)c(Br)c(Br)c2Br)c(Br)c1	5.75	–
Brc1c(Br)c(Br)c(Br)c(Br)c1Br	3	0.43
BrCCBr	1.18	-0.83
CC(C)(C)c1cc(-n2nc3ccccc3n2)c(O)c(C(C)(C)C)c1	–	0.89
O=C1c2ccccc2-c2cccc3cccc1c23	2.09	-0.69
c1ccc(Nc2ccc(Nc3ccccc3)cc2)cc1	3.12	–
ClCCl	1.36	-0.51
